# Measurements from ChEMBL document CHEMBL1201862, “PubChem BioAssay data set” (2004).
# Active and inactive are the calls of the source.
# Columns and labels:
# [1] = HEp-2 cell cytotoxicity, dose response, cytotoxicity control for RSV inhibitor project, HTS (AID 2410); type: functional; conditions: human respiratory syncytial virus
# [2] = Luminescence Cell-Based Dose Retest to Confirm Inhibitors of Cancer Stem Cells. [Related pubchem assays (depositor defined):AID2717, AID2721]; type: functional; conditions: Homo sapiens
# [3] = molecular target: T1, Protein skinhead-1 (Caenorhabditis elegans, UniProt P34707); type: functional
# T1 sequence (P34707 whole entry): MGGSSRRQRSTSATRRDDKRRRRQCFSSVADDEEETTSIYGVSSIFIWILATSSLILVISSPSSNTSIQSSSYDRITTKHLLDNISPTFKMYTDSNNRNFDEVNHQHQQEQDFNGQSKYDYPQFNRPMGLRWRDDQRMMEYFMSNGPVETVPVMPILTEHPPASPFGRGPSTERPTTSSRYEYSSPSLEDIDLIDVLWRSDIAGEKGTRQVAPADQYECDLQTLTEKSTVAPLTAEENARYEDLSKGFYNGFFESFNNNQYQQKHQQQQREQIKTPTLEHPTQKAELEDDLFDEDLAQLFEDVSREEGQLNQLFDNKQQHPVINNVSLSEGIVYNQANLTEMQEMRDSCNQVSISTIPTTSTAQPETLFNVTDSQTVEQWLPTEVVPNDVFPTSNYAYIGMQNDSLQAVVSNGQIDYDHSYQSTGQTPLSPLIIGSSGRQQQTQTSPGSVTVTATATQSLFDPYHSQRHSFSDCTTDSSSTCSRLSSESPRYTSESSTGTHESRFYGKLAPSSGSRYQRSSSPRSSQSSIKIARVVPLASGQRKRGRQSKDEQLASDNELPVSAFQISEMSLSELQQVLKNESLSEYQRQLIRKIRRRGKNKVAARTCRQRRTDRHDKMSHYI
# [4] = system: H9c2; assay: cells; type: functional, cell-based; conditions: Rattus norvegicus, H9c2, Myocardium;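 further: confirmatory concentration-response retest of ultra-high-throughput screening hits for modulation of myocardial damage; cell death induced by hydrogen peroxide oxidative stress; compound pretreatment for 60 min then peroxide exposure for 2 h; potency is for protecting the cells against peroxide damage rather than for killing them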
# [5] = molecular target: T2, Heat shock factor protein 1 (Mus musculus, UniProt P38532); assay: inhibition of MG132-induced HSE-luciferase signal, confirmation, cell-based, NIH3T3, luminescence, dose retest (AID 2382); type: functional;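 further: NIH3T3 fibroblasts with HSF1-driven luciferase reporter stressed by proteasome inhibitor MG132; luminescence from HSF1-driven luciferase expression after 8 hours of MG132 stress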
# T2 sequence (P38532 whole entry): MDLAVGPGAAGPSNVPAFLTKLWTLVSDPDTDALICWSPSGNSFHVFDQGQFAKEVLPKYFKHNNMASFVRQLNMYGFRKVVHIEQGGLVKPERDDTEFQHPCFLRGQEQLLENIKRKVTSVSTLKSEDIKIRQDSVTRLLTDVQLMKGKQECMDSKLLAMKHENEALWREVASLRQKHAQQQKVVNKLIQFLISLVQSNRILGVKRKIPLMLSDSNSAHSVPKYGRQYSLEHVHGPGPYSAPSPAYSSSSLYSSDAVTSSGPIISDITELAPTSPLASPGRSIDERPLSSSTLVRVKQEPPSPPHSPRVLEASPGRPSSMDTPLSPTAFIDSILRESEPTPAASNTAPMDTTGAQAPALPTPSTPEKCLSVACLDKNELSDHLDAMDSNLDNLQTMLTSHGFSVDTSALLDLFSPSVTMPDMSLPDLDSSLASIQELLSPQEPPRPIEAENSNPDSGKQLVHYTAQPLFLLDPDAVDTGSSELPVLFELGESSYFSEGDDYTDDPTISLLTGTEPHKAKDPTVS
# [6] = molecular target: Cytochrome P450 3A4 (Homo sapiens, UniProt P08684);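 further: CYP3A4 tested as one member of a cytochrome P450 panel screen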
# Chain of Cytochrome P450 3A4 (P08684 whole entry): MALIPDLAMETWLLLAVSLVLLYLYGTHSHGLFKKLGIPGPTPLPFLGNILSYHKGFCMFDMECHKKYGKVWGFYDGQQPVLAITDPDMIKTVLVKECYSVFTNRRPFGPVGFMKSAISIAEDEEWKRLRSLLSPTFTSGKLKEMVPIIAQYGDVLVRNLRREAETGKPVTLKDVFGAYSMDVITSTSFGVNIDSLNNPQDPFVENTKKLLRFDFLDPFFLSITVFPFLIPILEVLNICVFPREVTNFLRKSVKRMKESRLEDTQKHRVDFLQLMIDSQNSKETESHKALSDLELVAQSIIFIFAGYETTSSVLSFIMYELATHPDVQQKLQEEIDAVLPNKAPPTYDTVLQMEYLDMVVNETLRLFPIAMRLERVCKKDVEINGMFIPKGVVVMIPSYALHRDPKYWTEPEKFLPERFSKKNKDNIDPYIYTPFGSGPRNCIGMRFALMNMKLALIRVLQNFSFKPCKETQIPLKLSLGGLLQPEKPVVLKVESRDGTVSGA
# [7] = molecular target: Cytochrome P450 2D6 (Homo sapiens, UniProt P10635);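 further: CYP2D6 member of a cytochrome P450 panel assay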
# Chain of Cytochrome P450 2D6 (P10635 whole entry): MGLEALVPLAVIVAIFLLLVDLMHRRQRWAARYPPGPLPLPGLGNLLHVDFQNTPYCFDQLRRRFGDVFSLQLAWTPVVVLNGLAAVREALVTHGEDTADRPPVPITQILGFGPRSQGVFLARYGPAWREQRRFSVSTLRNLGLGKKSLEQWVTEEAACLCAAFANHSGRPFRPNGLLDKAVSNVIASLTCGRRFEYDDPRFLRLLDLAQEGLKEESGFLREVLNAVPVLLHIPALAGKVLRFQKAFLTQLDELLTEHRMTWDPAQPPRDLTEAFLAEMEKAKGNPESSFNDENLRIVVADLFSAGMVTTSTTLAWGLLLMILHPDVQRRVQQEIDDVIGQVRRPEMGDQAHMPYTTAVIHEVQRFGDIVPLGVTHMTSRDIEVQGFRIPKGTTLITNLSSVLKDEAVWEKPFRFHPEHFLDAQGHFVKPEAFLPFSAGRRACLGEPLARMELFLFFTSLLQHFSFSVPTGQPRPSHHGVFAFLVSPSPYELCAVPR
# [8] = molecular target: Paired box protein Pax-8 (Homo sapiens, UniProt Q06710); assay: inhibitors of PAX8-driven TPO luciferase reporter, dose response, RMG-I cells, cherry-pick (AID 687027); type: functional, cell-based;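 further: luciferase reporter driven by Pax8 target thyroperoxidase promoter measured by SteadyGlo luminescence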
# Chain of Paired box protein Pax-8 (Q06710 whole entry): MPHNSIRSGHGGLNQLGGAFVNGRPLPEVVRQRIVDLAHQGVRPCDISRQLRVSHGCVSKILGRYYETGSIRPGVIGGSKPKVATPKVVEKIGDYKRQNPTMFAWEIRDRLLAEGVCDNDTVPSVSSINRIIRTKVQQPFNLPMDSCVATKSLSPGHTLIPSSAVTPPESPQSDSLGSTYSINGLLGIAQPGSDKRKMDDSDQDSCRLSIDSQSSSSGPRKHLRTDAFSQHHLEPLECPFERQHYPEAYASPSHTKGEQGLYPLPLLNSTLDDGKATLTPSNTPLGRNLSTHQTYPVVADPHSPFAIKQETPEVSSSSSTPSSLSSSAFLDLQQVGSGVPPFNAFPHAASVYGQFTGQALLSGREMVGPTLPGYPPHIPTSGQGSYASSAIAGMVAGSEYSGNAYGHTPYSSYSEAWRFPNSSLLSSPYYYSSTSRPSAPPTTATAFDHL
# [9] = inhibitors of firefly luciferase expression or activity, dose response, H4 neuroglioma cells, luminescence (AID 1990); type: functional, cell-based
# [10] = Luminescence Cell-Based Dose Response HTS to Identify Inhibitors of 5'UTR Stem-Loop Driven Prion Protein mRNA Translation in H4 Neuroglioblastoma Cells. [Related pubchem assays: 1827 (Project Summary), 1813 (Primary HTS)]; type: functional
# [11] = inhibitors of SNCA 5'UTR-driven reporter translation, confirmation, H4 neuroglioma cells, luminescence (AID 1988); type: functional, cell-based
# [12] = molecular target: T3, Replicative DNA helicase DnaB (Mycobacterium tuberculosis, UniProt P9WMR3); assay: DnaB intein splicing inhibitors, dose response, biochemical, cell-free fluorescence (AID 449749); type: functional
# T3 sequence (P9WMR3 whole entry): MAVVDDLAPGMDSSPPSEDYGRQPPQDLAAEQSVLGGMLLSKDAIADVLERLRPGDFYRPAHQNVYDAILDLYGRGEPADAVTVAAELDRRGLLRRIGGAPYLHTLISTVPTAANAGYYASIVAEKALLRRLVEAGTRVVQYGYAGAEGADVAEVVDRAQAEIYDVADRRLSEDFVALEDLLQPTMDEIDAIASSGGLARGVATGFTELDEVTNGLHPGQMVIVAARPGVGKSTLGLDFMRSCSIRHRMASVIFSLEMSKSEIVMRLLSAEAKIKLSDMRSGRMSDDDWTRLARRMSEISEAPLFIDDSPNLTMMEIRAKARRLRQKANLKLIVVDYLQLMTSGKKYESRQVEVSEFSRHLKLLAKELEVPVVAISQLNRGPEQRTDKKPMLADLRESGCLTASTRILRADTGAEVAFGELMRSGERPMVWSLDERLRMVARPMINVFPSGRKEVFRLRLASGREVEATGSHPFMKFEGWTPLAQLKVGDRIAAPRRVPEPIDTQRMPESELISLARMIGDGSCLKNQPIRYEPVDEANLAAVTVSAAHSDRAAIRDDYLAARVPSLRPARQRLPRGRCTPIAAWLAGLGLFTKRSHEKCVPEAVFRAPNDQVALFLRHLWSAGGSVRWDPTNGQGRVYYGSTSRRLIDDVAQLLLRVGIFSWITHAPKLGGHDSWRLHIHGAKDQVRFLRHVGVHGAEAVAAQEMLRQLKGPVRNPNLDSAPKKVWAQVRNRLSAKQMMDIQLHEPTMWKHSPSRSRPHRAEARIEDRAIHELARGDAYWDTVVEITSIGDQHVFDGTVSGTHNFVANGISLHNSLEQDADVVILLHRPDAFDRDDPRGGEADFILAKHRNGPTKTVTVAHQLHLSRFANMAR
# [13] = molecular target: T4, Protein RecA (Mycobacterium tuberculosis, UniProt P9WHJ3); assay: Fluorescence Cell-Free Homogeneous Dose Retest to Identify Inhibitors of RecA-Intein Splicing Activity. [Related pubchem assays (depositor defined):AID2097, AID2223, AID489010, AID492950]; type: functional
# T4 sequence (P9WHJ3 whole entry): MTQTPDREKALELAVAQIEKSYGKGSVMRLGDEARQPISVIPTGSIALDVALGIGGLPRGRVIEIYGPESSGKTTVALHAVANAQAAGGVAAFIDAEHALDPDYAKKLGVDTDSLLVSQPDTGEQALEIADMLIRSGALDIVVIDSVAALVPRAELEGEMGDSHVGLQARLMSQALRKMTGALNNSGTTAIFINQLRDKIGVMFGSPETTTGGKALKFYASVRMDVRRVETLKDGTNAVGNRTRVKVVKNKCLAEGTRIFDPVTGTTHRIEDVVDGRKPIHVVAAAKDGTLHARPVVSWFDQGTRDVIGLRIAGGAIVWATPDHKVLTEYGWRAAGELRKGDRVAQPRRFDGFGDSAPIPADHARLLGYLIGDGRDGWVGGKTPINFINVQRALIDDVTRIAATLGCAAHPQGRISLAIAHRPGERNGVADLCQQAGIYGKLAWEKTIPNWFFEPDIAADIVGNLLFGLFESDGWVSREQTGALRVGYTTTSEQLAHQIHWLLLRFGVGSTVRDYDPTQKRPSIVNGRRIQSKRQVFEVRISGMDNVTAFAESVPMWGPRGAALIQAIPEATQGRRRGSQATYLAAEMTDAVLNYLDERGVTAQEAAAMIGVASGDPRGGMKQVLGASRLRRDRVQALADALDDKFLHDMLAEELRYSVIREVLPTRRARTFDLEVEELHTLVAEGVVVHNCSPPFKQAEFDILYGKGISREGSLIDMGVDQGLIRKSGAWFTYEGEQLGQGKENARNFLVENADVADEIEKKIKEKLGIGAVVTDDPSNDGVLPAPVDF
# [14] = P. falciparum Dd2 growth inhibitors, dose response, SYBR Green, cherry-picked samples (AID 1159567); type: functional, cell-based
smiles,measurement,setting,value
O=C(Nc1ccc(NC(=S)NC(=O)c2ccccc2Cl)cc1)c1cccc(Cl)c1,CC50,[1],> 50 µM (active)
same,AC50,[2],3.26 µM (active)
O=C1C2C(C(=O)N1Cc1cccnc1)C1C=CC2C12CC2 (configuration not stated),IC50,[3],> 100 µM (inactive)
COc1ccc(Cl)cc1-c1nc(-c2ccc(NC(=O)c3cccs3)cc2)no1,CC50,[1],23.2 µM (active)
same,IC50,[4],> 79 µM (inactive)
O=C(CNC(=O)C12CC3CC(CC(C3)C1)C2)NCc1ccccc1,EC50,[5],> 195 µM (not active)
O=Cc1ccc(OC(=O)Cc2ccc(F)cc2)cc1,EC50,[5],> 195 µM (not active)
FC(F)(F)c1nnc2n1N=C(c1cccs1)CS2,CC50,[1],22.6 µM (active)
Cc1ccccc1OCC(=O)Nc1ccc([N+](=O)[O-])cc1,EC50,[5],> 195 µM (not active)
Cc1ccc(C2=NN(S(=O)(=O)c3ccccc3)C(c3ccco3)C2)cc1 (configuration not stated),CC50,[1],8.13 µM (active)
Cc1ccccc1OCCCn1c(=O)sc2ccccc21,CC50,[1],32.2 µM (active)
same,AC50,[6],17.8 µM (inconclusive)
same,AC50,[7],11.2 µM (inconclusive)
Cc1ccc(C2CC(=O)Oc3cc(O)ccc32)cc1 (configuration not stated),IC50,[3],> 100 µM (inactive)
CC(=O)c1cccc(NC(=O)Nc2ccc3c(c2)N(C)C(=O)CS3)c1,IC50,[4],> 79 µM (inactive)
CCCN(CCC)C(=O)CSc1nc2ccsc2c(=O)n1NC(=O)c1ccccc1,EC50,[5],> 195 µM (not active)
CCCN(Cc1nnc(-c2ccccc2Cl)o1)C(=O)c1cc2ccccc2o1,CC50,[1],19.5 µM (active)
CCCCOc1ccc2c(c1)C(=O)c1cc(O)ccc1-2,CC50,[1],11.7 µM (active)
Cn1ncc([N+](=O)[O-])c1C(=O)Nc1ccccc1Cl,EC50,[5],> 195 µM (not active)
COc1cccc(C(=O)Nc2ccc(C3CC3(Cl)Cl)cc2)c1 (configuration not stated),AC50,[2],3.15 µM (active)
CC1CCCCC1N1CN=C(Nc2nc3ccccc3s2)NC1 (configuration not stated),IC50,[3],> 100 µM (inactive)
COc1ccc(NS(=O)(=O)c2ccc3[nH]c(COc4ccc5ccccc5c4)nc3c2)cc1,EC50,[5],> 195 µM (not active)
O=C(NCc1ccco1)c1cnn2c(C(F)(F)F)cc(-c3cccs3)nc12,IC50,[4],34.1 µM (inactive)
O=C1/C(=C/c2cccs2)CCC1C1CCCC1 (configuration not stated),IC50,[3],> 100 µM (inactive)
O=C(Nc1ccc2[nH]c(-c3ccccc3)nc2c1)c1cccs1,IC50,[3],> 100 µM (inactive)
CC1(C)Cc2ccccc2C(CSc2ccccc2C(=O)O)=N1,AC50,[2],4.98 µM (active)
COCCn1nnnc1C(C(C)C)N(Cc1cccnc1)Cc1cc2cc(OC)ccc2nc1O (configuration not stated),IC50,[4],21.8 µM (active)
CCc1ccccc1NC(=O)COc1cccc2ccc(C)nc12,EC50,[5],> 195 µM (not active)
COCC(=O)Nc1sc2c(c1C(=O)OC)CCCC2,IC50,[3],> 100 µM (inactive)
CNc1nc(-c2ccccc2)nnc1C(F)(F)F,CC50,[1],27.7 µM (active)
COc1cc2cnc(-c3ccccc3)c(-c3cccc(C(F)(F)F)c3)c2cc1OC,AC50,[2],4.47 µM (active)
Cc1cnc(NC(=O)CC(C)c2ccccc2)s1 (configuration not stated),IC50,[3],> 100 µM (inactive)
COC(=O)c1oc2ccc(Cl)cc2c1-n1cccc1,IC50,[3],> 100 µM (inactive)
Clc1ccc(C=Cc2ccccn2)cc1,IC50,[3],5.71 µM (active)
CC(=O)NC(CCc1ccc(Cl)c(Cl)c1)c1cccc(O)c(=O)c1 (configuration not stated),AC50,[8],2.08 µM (active)
same,IC50,[4],> 79 µM (inactive)
Cc1ccc(S(=O)(=O)N(C)C)cc1NC(=O)COC(=O)Cc1nnc(O)c2ccccc12,IC50,[4],> 79 µM (inactive)
O=C(CNC(=O)c1ccc(F)cc1)N/N=C/c1cc(Br)ccc1OC(=O)/C=C/c1ccco1,EC50,[9],11.8 µM (active)
same,EC50,[10],12.1 µM (active)
same,EC50,[11],8.72 µM (active)
same,IC50,[4],19 µM (active)
CCCOc1ccc2[nH]c(C(=O)N/N=C/c3cc(OC)c(OC)c(OC)c3)cc2c1,AC50,[8],2.89 µM (active)
same,IC50,[4],> 79 µM (inactive)
Cc1[nH]c2ccccc2c1/C=N/NC(=O)c1cc(-c2ccccc2)[nH]n1,IC50,[4],> 79 µM (inactive)
O=c1cc(-c2ccccc2)[nH]n1-c1ccc([N+](=O)[O-])cc1,AC50,[12],3.09 µM (active)
same,EC50,[13],11 µM (active)
same,AC50,[2],4.13 µM (active)
O=[N+]([O-])c1ccc(O)c(/C=N/c2ccc3oc(Cc4ccc(Cl)cc4)nc3c2)c1,EC50,[5],> 195 µM (not active)
COc1cccc(-c2ccc3c(c2)[C@@H]2[C@@H](CCN2S(=O)(=O)c2cn(C)cn2)[C@@H](CO)N3)c1,AC50,[14],9.63 µM (active)
C[C@@H]1CN([C@H](C)CO)S(=O)(=O)c2ccc(C3=CCCCC3)cc2O[C@H]1CN(C)C(=O)Cc1ccncc1,AC50,[14],3.22 µM (active)
C[C@@H]1CN([C@@H](C)CO)C(=O)Cc2cc(NC(=O)Nc3ccccc3)ccc2O[C@H]1CN(C)CC1CC1,AC50,[14],8.09 µM (active)
CCC(=O)N1CC2(C1)[C@H](c1ccccc1)[C@H](CO)N2Cc1ccccc1OC,AC50,[14],8.35 µM (active)
